How the values were obtained:
Type in all cases: cell-based
Conditions in all cases: after 10, 20, 40 and 60 minutes at all dilutions 1:100, 1:200, 1:400, 1:800
[1] = system: Staphylococcus aureus; experiment: Antimicrobial testing by agar dilution, Staphylococcus aureus
Method: (§1) The antimicrobial properties of the 6-(3-hydroxyphenyl)-2-methoxy-4-(3-methylphenyl)nicotinonitrile (4) were studied by the method of agar dilution. Test solutions of each compound were prepared in concentration of 1% using dimethylformamide as a solvent then they are diluted in physiological solution to obtain the final experimental dilutions 1:100, 1:200, 1:400, 1:800. The effect of these substances were compared with furacillin in a controllable study. The testing microbes used were gram positive bacteria Staphylococcus aureus, gram negative bacteria Escherichia coli, Pseudomonas aeruginosa and Candida albicans fungi were taken. The experiments used for this survey were meat-pentonlu agar (EPA) for cultivation of bacteria and Saburo environment for fungi. Each experiment used 1 ml of test solution on each plate 500 min. Add 2 drops of emulsified with microbes feel. All experimental samples were taken from the agar after 10, 20, 40, 60 minutes in the environment on the basis of Patrk planted. Bacteria were cultivated at a temperature of 37° C. for 1 day and the mushroom was kept in a thermostat for 2 hours at a temperature of 28° C. in the. Then results were checked.

[2] = system: Escherichia coli; experiment: Antimicrobial testing by agar dilution, Escherichia coli
Method: as §1

[3] = system: Candida albicans; experiment: Antimicrobial testing by agar dilution, Candida albicans
Method: as §1

[4] = system: Pseudomonas aeruginosa; experiment: Antimicrobial testing by agar dilution, Pseudomonas aeruginosa
Method: as §1

Measured: inhibition activity

COc1nc(-c2cccc(O)c2)cc(-c2cccc(C)c2)c1C#N [6-(3-hydroxyphenyl)-2-methoxy-4-(3-methylphenyl)nicotinonitrile]
highest inhibition activity: [1] | [2] | [3] | [4]
